Patent US20170015555A1, “LONG-TERM PRESERVATION AND NOVEL APPLICATION OF CHLOROUS ACID AQUEOUS SOLUTION FORMULATION” (priority 2013, published 2017)

Columns and labels:
Assay type in all cases: cell-based
[1] = tested on: Staphylococcus aureus IF0 12732; experiment: Sterilizing effect on floor surface after wiping off imitation vomit, tatami mattress; conditions: 1000 ppm available chlorine
Excerpt: (§1) 1) Chlorous acid aqueous solution formulation (see Example 1: Table 11) Treatment sheet (material: 100% cotton): (about 27×40 cm) *Impregnated at a ratio of weight of treatment sheet (g): amount of liquid (ml)=1:3 2) Imitation vomit Miso solution: adjusted to pH of 2 with hydrochloric acid 3) Test Microbes that were Used E. coli: Escherichia coli IF03927 Staphylococcus aureus: Staphylococcus aureus IF0 12732 Thermoduric Microbes (Bacillus cereus): Bacillus cereus NBRC15305 Microbes of the genus Salmonella: Salmonella Enteritidis IF03313 Enterohemorrhagic Escherichia coli O157: Escherichia coli O157 Enterohemorrhagic Escherichia coli O111: Escherichia coli O111 Enterohemorrhagic Escherichia coli O26: Escherichia coli O26
(§2) (1) Imitation vomit was spread in an area about the size of an A4 sheet. (2) 5 dry sheets were laid thereon. (3) An agent solution was poured on the dry sheets to wipe off the imitation vomit. (4) A cotton swab was soaked with sterile saline. A portion where imitation vomit was spread was scrubbed with the cotton swab to collect microbes remaining on the floor. After suspending in saline, the solution was spread on a petri dish and cultured. The number of each of the microbes was measured. (5) Test operations 3 and 4 were repeated a total of 7 times (repeated until the imitation vomit could be removed completely).

[2] = tested on: Enterohemorrhagic Escherichia coli O26; experiment: as above; conditions: 1000 ppm available chlorine
Excerpt: as §1, §2

[3] = tested on: Enterohemorrhagic Escherichia coli O111; experiment: as above; conditions: 1000 ppm
Excerpt: as §1, §2

[4] = tested on: Microbes of the genus Salmonella: Salmonella Enteritidis IF03313; experiment: as above; conditions: 1000 ppm available chlorine
Excerpt: as §1, §2

[5] = tested on: Bacillus cereus NBRC15305; experiment: as above; conditions: 1000 ppm available chlorine
Excerpt: as §1, §2

[6] = tested on: Enterohemorrhagic Escherichia coli O157; experiment: as above; conditions: 1000 ppm available chlorine
Excerpt: as §1, §2

[7] = tested on: E. coli: Escherichia coli IF03927; experiment: as above; conditions: 1000 ppm available chlorine
Excerpt: as §1, §2

pathogenic microbes = experiment: Preventing secondary contamination upon treating vomit, summary over all tested microbes
Excerpt: 1) Chlorous acid aqueous solution formulation (see Example 1: Table 11) Treatment sheet (material: 100% cotton): (about 27×40 cm) *Impregnated at a ratio of weight of treatment sheet (g): amount of liquid (ml)=1:3 2) Imitation vomit (hereinafter, referred to as vomit) Miso solution: adjusted to pH 2 with hydrochloric acid 3) Test Microbes that were used E. coli: Escherichia coli IF03927 Staphylococcus aureus: Staphylococcus aureus IF0 12732 Thermoduric Microbes (Bacillus cereus): Bacillus cereus NBRC15305 Microbes of the genus Salmonella: Salmonella Enteritidis IF03313 Enterohemorrhagic Escherichia coli 0157: Escherichia coli 0157 Enterohemorrhagic Escherichia coli 0111: Escherichia coli 0111 Enterohemorrhagic Escherichia coli 026: Escherichia coli O26
Permeability of pathogenic microbes into a treatment sheet when treating vomit was examined to compare effects of preventing secondary contamination. (1) Imitation vomit is spread in an area about the size of an A4 sheet. (2) 30 agent solution-containing treatment sheets were laid thereon and left standing for 10 minutes. (3) Treatment sheets were removed one at a time from the top. After diluting with saline, the sample was spread in a petri dish and cultured.

For `OCl` [Sodium Hypochlorite, sodium hypochlorite], the “microbes remaining, wiped 1 Time” value ([1]; stored at 25° C. Day 0) was less than 10, the “microbes remaining, wiped 2 Times” value ([1]; stored at 25° C. Day 0) was less than 10 and the “microbes remaining, wiped 3 Times” value ([1]; stored at 25° C. Day 0) was less than 10. For the same compound, the “microbes remaining, wiped 1 Time” value ([1]; stored at 25° C. Day 7) was less than 10, the “microbes remaining, wiped 2 Times” value ([1]; stored at 25° C. Day 7) was less than 10 and the “microbes remaining, wiped 3 Times” value ([1]; stored at 25° C. Day 7) was less than 10. For the same compound, the “Number of Times Wiped 1 Time (remaining microbes)” value ([2]; stored at 25° C. Day 0) was less than 10, the “Number of Times Wiped 2 Times (remaining microbes)” value ([2]; stored at 25° C. Day 0) was less than 10 and the “Number of Times Wiped 3 Times (remaining microbes)” value ([2]; stored at 25° C. Day 0) was less than 10. The “Number of Times Wiped 1 Time (remaining microbes)” value ([2]; stored at 25° C. Day 7) was 8.8 × 10^3, the “Number of Times Wiped 2 Times (remaining microbes)” value ([2]; stored at 25° C. Day 7) was 4.9 × 10^3 and the “Number of Times Wiped 3 Times (remaining microbes)” value ([2]; stored at 25° C. Day 7) was 3.0 × 10^3. For the same compound, the “Number of Times Wiped 1 Time (remaining microbes)” value ([3]; stored at 25° C. Day 0) was less than 10, the “Number of Times Wiped 2 Times (remaining microbes)” value ([3]; stored at 25° C. Day 0) was less than 10 and the “Number of Times Wiped 3 Times (remaining microbes)” value ([3]; stored at 25° C. Day 0) was less than 10. The “Number of Times Wiped 1 Time (remaining microbes)” value ([3]; stored at 25° C. Day 7) was less than 10, the “Number of Times Wiped 2 Times (remaining microbes)” value ([3]; stored at 25° C. Day 7) was less than 10 and the “Number of Times Wiped 3 Times (remaining microbes)” value ([3]; stored at 25° C. Day 7) was less than 10. For the same compound, the “microbes remaining, wiped 1 Time” value ([4]; stored at 25° C. Day 0) was less than 10, the “microbes remaining, wiped 2 Times” value ([4]; stored at 25° C. Day 0) was less than 10 and the “microbes remaining, wiped 3 Times” value ([4]; stored at 25° C. Day 0) was less than 10. For the same compound, the “microbes remaining, wiped 1 Time” value ([4]; stored at 25° C. Day 7) was 1.5 × 10^3, the “microbes remaining, wiped 2 Times” value ([4]; stored at 25° C. Day 7) was 7.7 × 10^2 and the “microbes remaining, wiped 3 Times” value ([4]; stored at 25° C. Day 7) was 1.8 × 10^2. For the same compound, the “microbes remaining, wiped 1 Time” value ([5]; stored at 25° C. Day 0) was less than 10, the “microbes remaining, wiped 2 Times” value ([5]; stored at 25° C. Day 0) was less than 10 and the “microbes remaining, wiped 3 Times” value ([5]; stored at 25° C. Day 0) was less than 10. The “microbes remaining, wiped 1 Time” value ([5]; stored at 25° C. Day 7) was less than 10, the “microbes remaining, wiped 2 Times” value ([5]; stored at 25° C. Day 7) was less than 10 and the “microbes remaining, wiped 3 Times” value ([5]; stored at 25° C. Day 7) was less than 10. For the same compound, the “Number of Times Wiped 1 Time (remaining microbes)” value ([6]; stored at 25° C. Day 0) was less than 10, the “Number of Times Wiped 2 Times (remaining microbes)” value ([6]; stored at 25° C. Day 0) was less than 10 and the “Number of Times Wiped 3 Times (remaining microbes)” value ([6]; stored at 25° C. Day 0) was less than 10. The “Number of Times Wiped 1 Time (remaining microbes)” value ([6]; stored at 25° C. Day 7) was less than 10, the “Number of Times Wiped 2 Times (remaining microbes)” value ([6]; stored at 25° C. Day 7) was less than 10 and the “Number of Times Wiped 3 Times (remaining microbes)” value ([6]; stored at 25° C. Day 7) was less than 10. The “microbes remaining, wiped 1 Time” value ([7]; stored at 25° C. Day 0) was less than 10, the “microbes remaining, wiped 2 Times” value ([7]; stored at 25° C. Day 0) was less than 10 and the “microbes remaining, wiped 3 Times” value ([7]; stored at 25° C. Day 0) was less than 10. The “microbes remaining, wiped 1 Time” value ([7]; stored at 25° C. Day 7) was less than 10, the “microbes remaining, wiped 2 Times” value ([7]; stored at 25° C. Day 7) was less than 10 and the “microbes remaining, wiped 3 Times” value ([7]; stored at 25° C. Day 7) was less than 10. For the same compound, the “sterilization/removal of pathogenic microbes in stacked treatment sheets” value (pathogenic microbes) was “able to sterilize pathogenic microbes from the first sheet”.
